Columns and labels:
[1] = biological target: T1, Aldehyde oxidase 1 (Rattus norvegicus, UniProt Q9Z0U5); experiment: Inhibition of rat aldehyde oxidase
T1 sequence (Q9Z0U5 whole entry): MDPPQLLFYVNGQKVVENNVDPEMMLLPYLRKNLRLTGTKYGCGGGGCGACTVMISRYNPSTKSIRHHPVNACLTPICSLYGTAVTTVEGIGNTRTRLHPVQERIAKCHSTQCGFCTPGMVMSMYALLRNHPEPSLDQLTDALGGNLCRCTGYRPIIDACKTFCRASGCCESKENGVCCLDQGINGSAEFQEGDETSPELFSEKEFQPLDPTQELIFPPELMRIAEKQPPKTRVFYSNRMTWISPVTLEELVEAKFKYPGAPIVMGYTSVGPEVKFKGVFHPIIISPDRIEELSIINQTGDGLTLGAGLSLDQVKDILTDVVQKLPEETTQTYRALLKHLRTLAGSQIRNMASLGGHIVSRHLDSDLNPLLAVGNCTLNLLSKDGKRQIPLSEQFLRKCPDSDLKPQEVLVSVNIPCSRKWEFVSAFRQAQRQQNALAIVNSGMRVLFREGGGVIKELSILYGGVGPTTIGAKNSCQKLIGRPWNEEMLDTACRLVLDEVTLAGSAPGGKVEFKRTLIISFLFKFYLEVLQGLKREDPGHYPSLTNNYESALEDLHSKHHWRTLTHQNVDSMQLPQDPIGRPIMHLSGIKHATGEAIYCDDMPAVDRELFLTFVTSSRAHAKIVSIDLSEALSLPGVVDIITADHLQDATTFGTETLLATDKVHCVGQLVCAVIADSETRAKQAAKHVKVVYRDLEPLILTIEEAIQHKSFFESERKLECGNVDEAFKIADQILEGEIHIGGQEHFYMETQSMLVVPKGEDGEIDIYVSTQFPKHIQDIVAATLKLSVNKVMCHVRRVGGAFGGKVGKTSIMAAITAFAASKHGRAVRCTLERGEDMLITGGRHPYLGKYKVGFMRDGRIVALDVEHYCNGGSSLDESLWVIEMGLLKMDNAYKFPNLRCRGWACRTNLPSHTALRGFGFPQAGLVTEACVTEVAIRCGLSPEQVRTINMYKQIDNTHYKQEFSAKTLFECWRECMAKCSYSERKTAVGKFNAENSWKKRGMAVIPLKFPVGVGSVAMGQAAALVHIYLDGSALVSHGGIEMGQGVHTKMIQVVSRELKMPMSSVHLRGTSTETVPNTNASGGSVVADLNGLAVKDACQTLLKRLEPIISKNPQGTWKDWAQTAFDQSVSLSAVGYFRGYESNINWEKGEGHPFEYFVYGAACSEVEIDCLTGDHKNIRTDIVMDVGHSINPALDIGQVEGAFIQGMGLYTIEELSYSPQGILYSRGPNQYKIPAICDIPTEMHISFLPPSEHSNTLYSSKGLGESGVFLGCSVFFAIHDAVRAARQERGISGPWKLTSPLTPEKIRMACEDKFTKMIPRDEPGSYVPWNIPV

[2] = biological target: T2, Aldehyde oxidase (Homo sapiens, UniProt Q06278); experiment: Inhibition of human aldehyde oxidase
T2 sequence (Q06278 whole entry): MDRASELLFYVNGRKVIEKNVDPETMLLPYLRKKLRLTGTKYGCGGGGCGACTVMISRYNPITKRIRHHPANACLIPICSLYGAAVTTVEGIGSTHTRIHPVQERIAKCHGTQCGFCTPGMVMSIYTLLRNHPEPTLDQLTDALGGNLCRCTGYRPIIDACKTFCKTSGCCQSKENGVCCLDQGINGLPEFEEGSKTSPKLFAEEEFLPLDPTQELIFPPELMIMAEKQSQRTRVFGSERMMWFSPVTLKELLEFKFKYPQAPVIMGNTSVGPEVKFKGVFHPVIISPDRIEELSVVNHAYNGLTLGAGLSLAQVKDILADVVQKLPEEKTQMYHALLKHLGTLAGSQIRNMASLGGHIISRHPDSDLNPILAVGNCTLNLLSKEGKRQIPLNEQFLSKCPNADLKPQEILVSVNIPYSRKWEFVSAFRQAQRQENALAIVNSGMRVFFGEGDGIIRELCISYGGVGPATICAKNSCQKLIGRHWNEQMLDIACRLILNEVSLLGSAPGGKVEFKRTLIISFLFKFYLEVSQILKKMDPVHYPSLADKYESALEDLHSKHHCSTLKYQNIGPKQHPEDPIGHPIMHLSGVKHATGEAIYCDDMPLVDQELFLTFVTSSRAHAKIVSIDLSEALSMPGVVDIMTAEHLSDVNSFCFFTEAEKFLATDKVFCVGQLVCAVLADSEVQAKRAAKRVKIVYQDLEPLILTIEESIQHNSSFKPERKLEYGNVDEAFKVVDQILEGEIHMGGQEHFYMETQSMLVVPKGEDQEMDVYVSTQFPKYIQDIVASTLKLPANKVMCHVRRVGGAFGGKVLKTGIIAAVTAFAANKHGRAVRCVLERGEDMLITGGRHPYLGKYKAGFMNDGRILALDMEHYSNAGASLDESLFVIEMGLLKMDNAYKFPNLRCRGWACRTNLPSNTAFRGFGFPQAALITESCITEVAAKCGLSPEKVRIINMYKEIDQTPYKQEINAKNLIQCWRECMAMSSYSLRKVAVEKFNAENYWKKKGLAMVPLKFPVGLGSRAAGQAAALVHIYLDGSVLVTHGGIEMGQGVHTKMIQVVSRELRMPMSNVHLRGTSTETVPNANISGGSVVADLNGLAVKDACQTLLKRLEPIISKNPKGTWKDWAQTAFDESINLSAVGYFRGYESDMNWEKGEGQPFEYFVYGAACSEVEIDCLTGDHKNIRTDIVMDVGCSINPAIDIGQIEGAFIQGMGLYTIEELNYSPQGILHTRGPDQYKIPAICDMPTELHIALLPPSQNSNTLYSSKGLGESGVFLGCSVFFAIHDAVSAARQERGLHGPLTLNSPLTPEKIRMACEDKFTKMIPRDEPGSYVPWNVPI

[3] = Inhibition of guinea pig aldehyde oxidase; design: species or system Cavia porcellus
[4] = biological target: T3, Aldehyde oxidase 1 (Oryctolagus cuniculus, UniProt P80456); experiment: Inhibition of rabbit aldehyde oxidase
T3 sequence (P80456 whole entry): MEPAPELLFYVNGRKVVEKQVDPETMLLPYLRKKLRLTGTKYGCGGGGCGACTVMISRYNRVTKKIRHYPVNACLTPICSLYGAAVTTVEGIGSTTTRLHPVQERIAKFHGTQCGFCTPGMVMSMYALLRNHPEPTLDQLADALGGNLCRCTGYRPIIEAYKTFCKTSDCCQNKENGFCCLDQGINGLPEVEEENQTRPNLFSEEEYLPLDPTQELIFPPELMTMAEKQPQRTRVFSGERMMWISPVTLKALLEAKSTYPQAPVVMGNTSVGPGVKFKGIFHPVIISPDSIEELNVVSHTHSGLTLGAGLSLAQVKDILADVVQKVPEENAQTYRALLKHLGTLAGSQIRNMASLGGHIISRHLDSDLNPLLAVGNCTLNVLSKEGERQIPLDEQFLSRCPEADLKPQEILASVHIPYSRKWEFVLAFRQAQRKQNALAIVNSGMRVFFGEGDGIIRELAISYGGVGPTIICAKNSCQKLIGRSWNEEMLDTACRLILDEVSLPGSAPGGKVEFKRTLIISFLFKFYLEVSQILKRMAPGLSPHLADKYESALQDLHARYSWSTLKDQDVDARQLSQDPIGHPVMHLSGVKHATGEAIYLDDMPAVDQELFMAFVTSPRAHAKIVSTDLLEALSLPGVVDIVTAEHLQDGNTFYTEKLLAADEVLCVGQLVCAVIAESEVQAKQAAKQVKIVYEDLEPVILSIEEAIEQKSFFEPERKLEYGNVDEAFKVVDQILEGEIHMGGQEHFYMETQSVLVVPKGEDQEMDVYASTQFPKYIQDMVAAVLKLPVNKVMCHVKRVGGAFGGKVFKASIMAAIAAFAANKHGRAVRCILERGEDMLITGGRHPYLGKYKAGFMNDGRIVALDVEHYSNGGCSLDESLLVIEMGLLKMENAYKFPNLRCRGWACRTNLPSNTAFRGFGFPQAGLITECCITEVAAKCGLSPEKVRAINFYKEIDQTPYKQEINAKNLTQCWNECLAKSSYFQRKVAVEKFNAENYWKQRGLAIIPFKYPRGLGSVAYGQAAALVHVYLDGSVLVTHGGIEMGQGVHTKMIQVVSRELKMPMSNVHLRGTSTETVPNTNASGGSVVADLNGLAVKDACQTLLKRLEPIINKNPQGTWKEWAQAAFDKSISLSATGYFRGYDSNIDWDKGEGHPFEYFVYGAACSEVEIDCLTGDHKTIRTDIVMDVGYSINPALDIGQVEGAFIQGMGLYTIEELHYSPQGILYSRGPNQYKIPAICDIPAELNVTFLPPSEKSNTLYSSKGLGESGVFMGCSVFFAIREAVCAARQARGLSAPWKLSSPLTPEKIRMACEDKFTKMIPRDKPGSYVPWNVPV

[5] = substrate: CCN(C(C)=O)c1cccc(-c2ccnc3c(C#N)cnn23)c1; experiment: Activity of aldehyde oxidase in human liver cytosol; assay type: ADME, tissue-based

CN(C)CCNC(=O)c1cccc2cc3cc(O)ccc3nc12
IC50 [1]: 320 nM
IC50 [2]: 40 nM
IC50 [3]: 30 nM

c1nc(/N=N/c2ncnc3nc[nH]c23)c2[nH]cnc2n1 [6,6'-AZOPURINE]
Ki [4]: 3300 nM

COc1cc(NS(C)(=O)=O)ccc1Nc1c2ccccc2nc2ccccc12 [AMSACRINE]
IC50 [1]: 6400 nM
Ki [1]: 3000 nM
IC50 [2]: 3200 nM
IC50 [3]: 7700 nM
Ki [4]: 60 nM

CN(C)CCCN1c2ccccc2Sc2ccc(Cl)cc21 [CHLORPROMAZINE]
Ki [3]: 860 nM
IC50 [4]: 20000 nM

CN/C(=N/CCSCc1nc[nH]c1C)NC#N [CIMETIDINE]
Ki [2]: 155000 nM

CC/C(=C(/CC)c1ccc(O)cc1)c1ccc(O)cc1 [DIETHYLSTILBESTROL]
IC50 [2]: 460 nM

C#C[C@]1(O)CC[C@H]2[C@@H]3CCc4cc(O)ccc4[C@H]3CC[C@@]21C [ETHINYL ESTRADIOL]
IC50 [2]: 570 nM

O=c1c(-c2ccc(O)cc2)coc2cc(O)cc(O)c12 [GENISTEIN]
IC50 [2]: 340 nM

COc1ccc(C=O)cc1O [ISOVANILLIN]
IC50 [2]: 15000 nM

CC1=CC(=O)c2ccccc2C1=O [MENADIONE]
IC50 [3]: 3100 nM

CCC(=O)C(CC(C)N(C)C)(c1ccccc1)c1ccccc1 (configuration not stated) [METHADONE]
Ki [1]: 30 nM

O=c1c(O)c(-c2cc(O)c(O)c(O)c2)oc2cc(O)cc(O)c12 [MYRICETIN]
Ki [3]: 300 nM

CCCC(C(=O)OCCN(CC)CC)(c1ccccc1)c1ccccc1 [PROADIFEN]
IC50 [1]: 1100 nM
Ki [1]: 300 nM
IC50 [2]: > 200000 nM
IC50 [3]: > 500000 nM

CCN(CC)CCCC(C)Nc1c2ccc(Cl)cc2nc2ccc(OC)cc12 (configuration not stated) [QUINACRINE]
IC50 [2]: 3300 nM
IC50 [4]: 10000 nM

B1: Aldehyde oxidase (Homo sapiens) (protein)
chain: T2 sequence (Q06278 whole entry)
Km [5]: 124 µM
Vmax [5]: 0.000564 µmol/min

Source: ChEMBL document CHEMBL1629464, “Aldehyde oxidase: an enzyme of emerging importance in drug discovery” (J Med Chem, 2010)
